BigSolDB 2.1

O=C(O)c1ccc(C(=O)O)o1
solubility (mole fraction)
Conditions | in 1,2-dimethoxyethane | in 1,4-dioxane | in THF | in diglyme
293.15 K | – | – | 0.00772 | –
298.15 K | – | – | 0.00826 | –
303.15 K | 0.00344 | 0.00421 | 0.00884 | 0.00653
308.15 K | 0.00372 | 0.00458 | 0.00939 | 0.00704
313.15 K | 0.0039 | 0.00481 | 0.00998 | 0.00735
318.15 K | 0.0041 | 0.00521 | 0.0108 | 0.00767
323.15 K | 0.00432 | 0.00573 | 0.0116 | 0.00801
328.15 K | 0.00458 | 0.00631 | 0.0122 | 0.00842
333.15 K | 0.00487 | 0.00739 | 0.0128 | 0.00887
338.15 K | 0.00528 | 0.00827 | – | 0.00937
343.15 K | 0.00558 | 0.00886 | – | 0.00965
348.15 K | – | – | – | 0.0103
353.15 K | – | – | – | 0.0105
